The values below are quoted from earlier work in Sander's compilation of Henry's law constants.

Molecules are shown by their SMILES. “And” between values parts separate entries of the source, which are not always exact repeats. Equal entries are not always repeated.

The series in a line: Henry solubility constant Hcp at 298.15 K (mol/(m3 Pa)). To be noted: cited value.
The mark [1] stands for this setting: reference: Barcelo and Hennion (1997).
Setting [2] is: reference: Burkholder et al. (2015).
The mark [3] stands for this setting: reference: Burkholder et al. (2019).
Setting [4] is: reference: Barr and Newsham (1987).
Setting [5] is: reference: Fogg and Sangster (2003).
Where [6] appears, read: reference: Sander et al. (2011).
Where [7] appears, read: reference: Kuramochi et al. (2004).
[8] abbreviates: reference: Horvath and Getzen (1999).
[9] abbreviates: reference: Mackay et al. (1992b).

For the compound `COP(=O)(OC)C(O)C(Cl)(Cl)Cl` (stereo not given), the “Henry solubility constant Hcp” value under setting [1] was 5800.

On to `C[C@@H]1CCCC[C@H]1C` (relative stereo) [trans-1,2-dimethylcyclohexane], for which, under “reference: Brockbank (2013)”, the “Henry solubility constant Hcp” value was 1.6e-05.

As for `ClCC(Cl)(Cl)Cl` [1,1,1,2-tetrachloroethane], the “Henry solubility constant Hcp” value by setting is: (reference: Brockbank (2013)) 0.0042; under setting [2], 0.0042; under setting [3], 0.0042.

Consider `Clc1ccc(C(c2ccc(Cl)cc2)C(Cl)(Cl)Cl)cc1` [1,1,1-trichloro-2,2-bis-(4-chlorophenyl)-ethane], for which, under setting [1], the “Henry solubility constant Hcp” value was 0.0042.

Turning to `CC(Cl)(Cl)Cl` [1,1,1-trichloroethane], the “Henry solubility constant Hcp” value is 0.00058 under setting [4]; 0.00058 (reference: Brockbank (2013)); 0.0006 under setting [2]; 0.0006 under setting [3]; 0.00062 under setting [5]; 0.0022 (reference: Goldstein (1982)).

Regarding `CC(=O)C(F)(F)F` [1,1,1-trifluoro-2-propanone], the “Henry solubility constant Hcp” value reads like this: under setting [2], 1.4; under setting [3], 1.4; under setting [6], 1.4.

`BrC(Br)C(Br)Br` [1,1,2,2-tetrabromoethane]: the “Henry solubility constant Hcp” value was 0.014 (reference: Brockbank (2013)) and 0.014 under setting [3].

As to `ClC(Cl)C(Cl)Cl` [1,1,2,2-tetrachloroethane], the “Henry solubility constant Hcp” value is 0.018 under setting [4]; 0.024 (reference: Brockbank (2013)); 0.023 under setting [2]; 0.023 under setting [3]; 0.023 (reference: Goldstein (1982)).

As for `ClCC(Cl)Cl` [1,1,2-trichloroethane], the “Henry solubility constant Hcp” value is 0.011 under setting [4]; 0.011 (reference: Brockbank (2013)); 0.011 under setting [2]; 0.011 under setting [3]; 0.012 under setting [5]; 0.012 (reference: Goldstein (1982)).

Consider `CC(=O)C(Cl)Cl` [1,1-dichloro-2-propanone], for which the “Henry solubility constant Hcp” value under setting [2] is 0.33 and the “Henry solubility constant Hcp” value under setting [3] was 0.33.

Turning to `C=C(Cl)Cl` [1,1-dichloroethene], the “Henry solubility constant Hcp” value is, setting by setting: (reference: Brockbank (2013)) 0.00031; under setting [2], 0.00037; under setting [3], 0.00037; under setting [5], 0.0004; (reference: Goldstein (1982)) 0.00064.

Turning to `CC(=O)OC(C)(C)C` [1,1-dimethylethyl ethanoate], the “Henry solubility constant Hcp” value (reference: Brockbank (2013)) is 0.012.

In the case of `Cc1ccc(C)c(C)c1C` [1,2,3,4-tetramethylbenzene], the “Henry solubility constant Hcp” value (reference: Brockbank (2013)) is 0.0029.

`Clc1cc(Cl)c(Cl)c(Cl)c1` [1,2,3,5-tetrachlorobenzene]: the “Henry solubility constant Hcp” value (reference: Meylan and Howard (1991)) was 0.0063.

`OCC(O)CO` [1,2,3-propanetriol]: the “Henry solubility constant Hcp” value was 4.7e+06 under setting [2] and 4.7e+06 under setting [3].

Take `Clc1cccc(Cl)c1Cl` [1,2,3-trichlorobenzene]: the “Henry solubility constant Hcp” value (reference: Brockbank (2013)) is 0.0062.

For the compound `ClCC(Cl)CCl` [1,2,3-trichloropropane], the “Henry solubility constant Hcp” value (reference: Brockbank (2013)) is 0.033, the “Henry solubility constant Hcp” value under setting [2] was 0.036 and the “Henry solubility constant Hcp” value under setting [3] is 0.036.

As for `Cc1cccc(C)c1C` [1,2,3-trimethylbenzene], the “Henry solubility constant Hcp” value is, setting by setting: (reference: Brockbank (2013)) 0.0024; under setting [5], 0.0027.

For the compound `Brc1ccc(Br)c(Br)c1` [1,2,4-tribromobenzene], the “Henry solubility constant Hcp” value under setting [7] was 0.029.

With `Cc1ccc(C)c(C)c1` [1,2,4-trimethylbenzene], the “Henry solubility constant Hcp” value by setting is: (reference: Brockbank (2013)) 0.0016; under setting [5], 0.0017.

Turning to `CC(Cl)CCl` (stereo not given) [1,2-dichloropropane], the “Henry solubility constant Hcp” value is, setting by setting: (reference: Brockbank (2013)) 0.0034; under setting [2], 0.0034; under setting [3], 0.0034; (reference: Goldstein (1982)) 0.0034; under setting [8], 0.0035.

Turning to `CCOCCOCC` [1,2-diethoxyethane], the “Henry solubility constant Hcp” value (reference: Howard and Meylan (1997)) was 0.12.

Regarding `COCCOC` [1,2-dimethoxyethane], the “Henry solubility constant Hcp” value (reference: Brockbank (2013)) was 1.3.

As to `Cc1ccccc1C` [1,2-dimethylbenzene], the “Henry solubility constant Hcp” value reads like this: (reference: Brockbank (2013)) 0.002; under setting [5], 0.0024.

For the compound `c1ccc(CCc2ccccc2)cc1` [1,2-diphenylethane], the “Henry solubility constant Hcp” value under setting [9] is 0.059.

On to `CC1CO1` (stereo not given) [1,2-epoxypropane], for which the “Henry solubility constant Hcp” value (reference: Goldstein (1982)) was 0.052 and 0.051.

On to `OCCO` [1,2-ethanediol], for which the “Henry solubility constant Hcp” value by setting is: under setting [2], 6500; under setting [3], 6500.

With `CC(O)CO` (stereo not given) [1,2-propanediol], the “Henry solubility constant Hcp” value is 2700 under setting [2] and 2700 under setting [3].

For `Cc1cc(C)cc(C)c1` [1,3,5-trimethylbenzene], the “Henry solubility constant Hcp” value (reference: Brockbank (2013)) was 0.0012.

Consider `Clc1cccc(Cl)c1` [1,3-dichlorobenzene], for which the “Henry solubility constant Hcp” value (reference: Brockbank (2013)) was 0.0031, the “Henry solubility constant Hcp” value under setting [5] is 0.0034 and the “Henry solubility constant Hcp” value (reference: Goldstein (1982)) is 0.0039.

Regarding `ClCCCCl` [1,3-dichloropropane], the “Henry solubility constant Hcp” value runs as follows: (reference: Brockbank (2013)) 0.012; under setting [2], 0.01; under setting [3], 0.01.

Consider `ClC=CCCl` [1,3-dichloropropene], for which the “Henry solubility constant Hcp” value is, setting by setting: under setting [1], 2.4e-05; (reference: Goldstein (1982)) 0.0028; under setting [8], 0.0028.

Consider `Cc1cccc(C)c1` [1,3-dimethylbenzene], for which the “Henry solubility constant Hcp” value (reference: Brockbank (2013)) is 0.0015.

Regarding `OCCCCO` [1,4-butanediol], the “Henry solubility constant Hcp” value is 35000 under setting [2] and 35000 under setting [3].

As to `C1=CCC=CC1` [1,4-cyclohexadiene], the “Henry solubility constant Hcp” value (reference: Brockbank (2013)) is 0.0013.

On to `Brc1ccc(Br)cc1` [1,4-dibromobenzene], for which, under setting [7], the “Henry solubility constant Hcp” value was 0.011.

Consider `Clc1ccc(Cl)cc1` [1,4-dichlorobenzene], for which the “Henry solubility constant Hcp” value is, setting by setting: (reference: Brockbank (2013)) 0.0038; under setting [5], 0.0045; (reference: Goldstein (1982)) 0.0037.

For `ClCCCCCl` [1,4-dichlorobutane], the “Henry solubility constant Hcp” value (reference: Brockbank (2013)) was 0.02.

As for `Cc1ccc(C)cc1` [1,4-dimethylbenzene], the “Henry solubility constant Hcp” value was 0.0014 (reference: Brockbank (2013)), 0.0019 under setting [5] and 0.0014 (reference: Foster et al. (1994)).

Consider `ClCCOCCCl` [1,5-dichloro-3-oxapentane], for which the “Henry solubility constant Hcp” value is, setting by setting: (reference: Brockbank (2013)) 0.48; (reference: Goldstein (1982)) 0.46 and 0.47; (reference: Harrison et al. (1993)) 0.37.

`ClCCCCCCl` [1,5-dichloropentane]: the “Henry solubility constant Hcp” value (reference: Brockbank (2013)) is 0.01.

Consider `Nc1ccccc1Cl` [1-amino-2-chlorobenzene], for which, for the setting “reference: Brockbank (2013)”, the “Henry solubility constant Hcp” value is 1.9.

For the compound `Nc1ccc(Cl)cc1` [1-amino-4-chlorobenzene], the “Henry solubility constant Hcp” value (reference: Howard (1989)) is 0.92.

Regarding `FC(F)(F)C(Cl)Br` (stereo not given) [1-bromo-1-chloro-2,2,2-trifluoroethane], the “Henry solubility constant Hcp” value under setting [5] is 0.00056.

`Cc1ccc(Br)cc1` [1-bromo-4-methylbenzene]: the “Henry solubility constant Hcp” value (reference: Brockbank (2013)) is 0.0036.

As to `CCCCCCCBr` [1-bromoheptane], under “reference: Brockbank (2013)”, the “Henry solubility constant Hcp” value was 0.00022.

With `CCCBr` [1-bromopropane], the “Henry solubility constant Hcp” value (reference: Brockbank (2013)) was 0.0011.

`CCCCN` [1-butanamine]: the “Henry solubility constant Hcp” value was 0.54 (reference: Brockbank (2013)), 0.56 under setting [2] and 0.56 under setting [3].

With `CCCCS` [1-butanethiol], the “Henry solubility constant Hcp” value (reference: Brockbank (2013)) was 0.0015.

Take `CCCCO[N+](=O)[O-]` [1-butyl nitrate]: the “Henry solubility constant Hcp” value was 0.01 under setting [2], 0.01 under setting [3], 0.01 (reference: Sander et al. (2006)) and 0.01 under setting [6].

Turning to `C#CCC` [1-butyne], the “Henry solubility constant Hcp” value (reference: Brockbank (2013)) was 0.00056.

As to `FC(F)OC(Cl)C(F)(F)F` (stereo not given) [1-chloro-2,2,2-trifluoroethyl difluoromethyl ether], the “Henry solubility constant Hcp” value under setting [5] is 0.00024.

Take `Cc1ccc(Cl)cc1` [1-chloro-4-methylbenzene]: where the note is “reference: Brockbank (2013)”, the “Henry solubility constant Hcp” value was 0.0027.

Consider `CCCCCl` [1-chlorobutane], for which, under “reference: Brockbank (2013)”, the “Henry solubility constant Hcp” value was 0.00056.

In the case of `CCCCCCl` [1-chloropentane], the “Henry solubility constant Hcp” value (reference: Brockbank (2013)) was 0.00041.

In the case of `CCCCCCCCCCO` [1-decanol], the “Henry solubility constant Hcp” value (reference: Brockbank (2013)) is 0.2.

`C=CCCCCCCCC` [1-decene]: the “Henry solubility constant Hcp” value (reference: Brockbank (2013)) is 8.6e-06.

Consider `CCCCOCC` [1-ethoxy-butane], for which, where the note is “reference: Brockbank (2013)”, the “Henry solubility constant Hcp” value is 0.0076.

In the case of `CCc1cccc2ccccc12` [1-ethylnaphthalene], the “Henry solubility constant Hcp” value runs as follows: (reference: Brockbank (2013)) 0.02; under setting [9], 0.026.

`CC(=O)CF` [1-fluoro-2-propanone]: the “Henry solubility constant Hcp” value is 0.46 under setting [2] and 0.46 under setting [3].

Turning to `CCCCCCCN` [1-heptanamine], the “Henry solubility constant Hcp” value (reference: Brockbank (2013)) was 0.28.

For `CCCCCCCO` [1-heptanol], the “Henry solubility constant Hcp” value (reference: Brockbank (2013)) is 0.53.

Regarding `C=CCCCCC` [1-heptene], where the note is “reference: Brockbank (2013)”, the “Henry solubility constant Hcp” value was 2e-05.

Turning to `C#CCCCCC` [1-heptyne], under “reference: Brockbank (2013)”, the “Henry solubility constant Hcp” value is 0.00018.

For `CCCCCCCCCCCCCCCCO` [1-hexadecanol], where the note is “reference: Abraham (1984)”, the “Henry solubility constant Hcp” value was 0.35.

Regarding `CCCCCCN` [1-hexanamine], the “Henry solubility constant Hcp” value (reference: Brockbank (2013)) was 0.35.

Turning to `CCCCCCO` [1-hexanol], the “Henry solubility constant Hcp” value (reference: Brockbank (2013)) was 0.76.

As for `C#CCCCC` [1-hexyne], the “Henry solubility constant Hcp” value (reference: Brockbank (2013)) is 0.00026.

On to `Cc1cccc(O)c1C` [1-hydroxy-2,3-dimethylbenzene], for which the “Henry solubility constant Hcp” value (reference: Brockbank (2013)) was 6.7.
